Experiments:
[1] = test system: M. tuberculosis; assay: time-kill curve method, bactericidal activity (CFU) on solid media at pH6; format: cell-based; conditions: FIG. 2
Method: The synergistic effect of AHA in overcoming urea protection of M. tuberculosis and in enhancing the efficacy of PZA is illustrated.
We employed a time-kill curve method to determine the bactericidal activity of PZA and a combination of PZA and acetohydroxamic acid (AHA) against M. tuberculosis. We cultured M. tuberculosis on solid media at pH6. CFU values were determined for samples treated with pyrazinamide (PZA), urea at a typical body fluid concentration and acetohydroxamic acid. […] Consequently, our results provide that AHA acts not only as a PZA booster, but also as an anti-mycobacterial agent, in some instances, in a synergistic manner with the traditional anti-mycobacterial agent used.

[2] = biological target: mycobacterial urease (Mycobacterium bovis, UniProt A1KJR2); assay: cell-based; design: species or system M. bovis BCG
Chain of mycobacterial urease (A1KJR2 whole entry, looked up): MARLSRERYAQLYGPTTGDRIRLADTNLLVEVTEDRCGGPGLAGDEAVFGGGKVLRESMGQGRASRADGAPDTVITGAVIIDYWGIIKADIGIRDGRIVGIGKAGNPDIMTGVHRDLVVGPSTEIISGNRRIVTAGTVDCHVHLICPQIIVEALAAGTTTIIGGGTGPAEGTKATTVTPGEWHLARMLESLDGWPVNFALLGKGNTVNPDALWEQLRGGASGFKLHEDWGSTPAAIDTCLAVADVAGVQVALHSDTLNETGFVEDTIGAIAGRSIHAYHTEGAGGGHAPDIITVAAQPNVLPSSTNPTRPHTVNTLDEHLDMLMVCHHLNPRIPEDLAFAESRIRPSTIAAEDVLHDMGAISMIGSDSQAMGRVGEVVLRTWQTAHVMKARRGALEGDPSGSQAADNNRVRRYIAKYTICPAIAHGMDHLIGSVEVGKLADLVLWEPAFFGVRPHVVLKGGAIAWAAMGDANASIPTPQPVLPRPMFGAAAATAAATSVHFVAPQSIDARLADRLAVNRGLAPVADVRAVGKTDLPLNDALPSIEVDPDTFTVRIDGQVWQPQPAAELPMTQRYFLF

Structure (SMILES) | kill (bactericidal activity, CFU) ([1]; PZA alone, M. tuberculosis on solid media at pH6) | IC50 [2] [µM] | effect on kill rate ([1]; AHA combined with PZA (urea present), solid media pH6) | effect on urea protection against the PZA kill ([1]; AHA with PZA and urea at a typical body fluid concentration, solid media pH6)
NC(=O)c1cnccn1 [PZA, pyrazinamide] | modest |  |  | 
CC(=O)NO [acetohydroxamic acid] |  | 100 to 200 | substantially increased the kill rate | prevented urea protection

— patent US20170056345A1 (priority 2014, published 2017)
